Experimental data as given in patent US11840499B2, “Biobased-fatty acid arginates” (priority 2020, dated 2023).
Where two headings read alike, the source gives them in different places.

Experiments:
[1] = test system: Gram-negative Escherichia coli (ATCC 700728); assay: microbe, parasite or virus in culture; type: cell-based; settings: for MIC / MBC: E. coli; for MIC: lowest concentration with no color change (no active growth); for MBC: no viable growth on TSA, 37° C., 24 h
Description: (§1) Antimicrobial activity studies were performed using standard methods. For all compounds, at least 3 independent replicates of quadruplicate tests were conducted. The minimum inhibitory concentration (MIC) was determined as the lowest test compound concentration for which no color change (no active growth) occurred. Minimum bactericidal concentration (MBC) was determined by spreading 100 μl from each growth-negative well onto TSA and incubating at 37° C. for 24 h. MBC was the […] where no viable growth occurred.

[2] = test system: Gram-positive Listeria innocua (ATCC 33090); assay: Antimicrobial activity (MIC/MBC) against Listeria innocua; type: cell-based
Description: as §1

[3] = Surfactant properties: surface tension by drop image method, CMC; type: physicochemical; settings: aqueous solution
Description: Samples of the analyte were weighed and dissolved in distilled water to make a 10 mM stock solution. The stock solution was then subsequently diluted to make 5 mM, 1 mM, 0.5 mM, 0.25 mM, 0.125 mM, and 0.0625 mM solutions. The series of solutions were used to measure the surface tension using a drop image method with a surface tension instrument. Measurement for each sample was done in triplicate and the average value was calculated. Critical micelle concentration (CMC) is the concentration above which micelles form in the surfactant solution.

[4] = Escherichia coli, ATCC700728, read-out: MIC
[5] = Escherichia coli, ATCC700728, read-out: MBC
[6] = L. innocua, lowest concentration with no color change (no active growth)
[7] = L. innocua, no viable growth on TSA, 37° C., 24 h
[8] = Listeria innocua, ATCC33090, 24 h

Compound	MIC [1, 4]	MBC [1, 5]	MIC [2, 6]	MBC [2, 7]	MIC [1]	MBC [1]	other results
CCCCCCCCCCCC(=O)N[C@@H](CCCNC(=N)N)C(=O)OCC.Cl [Ethyl lauroyl arginate, ethyl-N^α-lauroyl-L-arginate HCl, reference compound]	7.3 mg/L	7.3 mg/L					MIC ([2]; Listeria innocua, ATCC33090, L. innocua, lowest concentration with no color change (no active growth), read-out: MIC): 7.3 mg/L; MBC ([2]; Listeria innocua, ATCC33090, L. innocua, no viable growth on TSA, 37° C., 24 h, read-out: MBC): 14.5 mg/L
N=C(N)NCCC[C@H](N)C(=O)O [L-arginine (commercial), L-arginine]	> 233 mg/L	> 233 mg/L	>232.7 ppm	>232.7 ppm			MIC ([2]; Listeria innocua, ATCC33090): > 233 mg/L; MBC [2, 8]: > 233 mg/L
CCOC(=O)[C@@H](N)CCCNC(=N)N.Cl.Cl [L-arginine ethyl ester dihydrochloride]	> 233 mg/L	> 233 mg/L					MIC ([2]; Listeria innocua, ATCC33090): > 233 mg/L; MBC [2, 8]: > 233 mg/L
CCCCCCCC/C=C\CCCCCCCC(=O)O [Oleic acid]	> 233 mg/L	> 233 mg/L	>232.7 ppm	>232.7 ppm			MIC ([2]; Listeria innocua, ATCC33090): > 233 mg/L; MBC [2, 8]: > 233 mg/L
CCCCCCCC/C=C\CCCCCCCC(=O)N[C@@H](CCCNC(=N)N)C(=O)OCC [Oleic arginate]			3.6 ppm	3.6 ppm	116.4 ppm	116.4 ppm	antimicrobial activity (in words) ([1]; Escherichia coli (ATCC 700728)): weak activity
CCCCCCCCCCCCOS(=O)(=O)[O-].[Na+] [SDS]							critical micelle concentration (CMC), compared to LAE [3]: much higher; surface tension level reached with increasing surfactant concentration ([3]; 0.0625-10 mM): 38 mN/m
CCCCCCCCCCCCCCCCCC(=O)N[C@@H](CCCNC(=N)N)C(=O)OCC [Stearic arginate]			14.5 ppm	29.1 ppm	>232.7 ppm	>232.7 ppm	
Isooleic acid			>232.7 ppm	>232.7 ppm	>232.7 ppm	>232.7 ppm	
Isooleic arginate			1.8 ppm	1.8 ppm	>232.7 ppm	>232.7 ppm	
Isostearic arginate			3.6 ppm	7.3 ppm	>232.7 ppm	>232.7 ppm	
Oleic phenol arginate			1.2 ppm	5.0 ppm	>232.7 ppm	>232.7 ppm	
Soy thymol arginate			3.6 ppm	14.5 ppm	>232.7 ppm	>232.7 ppm	
